Reference: patent US6432972B1, “Treating allergic and inflammatory conditions” (Schering Corporation, priority 2000, dated 2002)

What was measured:
[1] = stability of free base versus acid addition salt; assay type: physicochemical
Description: Such pharmaceutical compositions may be formulated by combining desloratadine or an equivalent amount of a pharmaceutically acceptable salt thereof with a suitable, inert, pharmaceutically acceptable carrier or diluent that may be either solid or liquid. Desloratadine may be converted into the pharmaceutically acceptable acid addition salts by admixing it with an equivalent amount of a pharmaceutically acceptable acid. Typically suitable pharmaceutically acceptable acids include the mineral acids, e.g., HNO3, H2SO4, H3PO4, HCl, HBr, organic acids, including, but not limited to, acetic, trifluoroacetic, propionic, lactic, maleic, succinic, tartaric, glucuronic and citric acids as well as alkyl or arylsulfonic acids, such as p-toluenesulfonic acid, 2-naphthalenesulfonic acid, or methanesulfonic acid. The preferred pharmaceutically acceptable salts are trifluoroacetate, tosylate, mesylate, and chloride.

[2] = system: seasonal allergic rhinitis patients; assay: double-blinded, randomized clinical trials in seasonal allergic rhinitis patients; assay type: in vivo, human
Protocol: Efficacy endpoints in all the studies were Total Symptom Score, Total Nasal Symptom Score, Total Non-nasal Symptom Score, and Health Quality of Life (HQOL) analysis in efficacy trials. […] An important efficacy endpoint analyzed in the desloratadine studies is the AM NOW total symptom score. This parameter measures the total symptom relief by the patient after 24 hours before taking the next day dose.

patients with SAR = assay: pooled randomized, parallel-group, double-blind, placebo-controlled studies; nasal congestion/stuffiness severity score in patients with SAR; assay type: in vivo, human; settings: for nasal congestion/stuffiness, 14-day average change in symptom severity score from baseline: baseline score 2.4
Protocol: The severity (0=none, 1=mild, 2=moderate, 3=severe) of congestion/stuffiness was assessed by patients for the study duration. The 14-day average change in symptom severity score from baseline was assessed. The mean symptom severity score for nasal congestion/stuffiness was 2.4 in each treatment group at baseline, indicating patients had moderate-to-severe nasal congestion before receiving treatment.

Clc1ccc2c(c1)CCc1cccnc1C2=C1CCNCC1 [Desloratadine]
stability, free base compared with acid addition salt [1]: more stable as the free base than as an acid addition salt
total symptom scores (sum of individual scores for rhinorrhea, sneezing, congestion/stuffiness, nasal itching, itchy/burning eyes, tearing, ocular redness, itchy ears/palate) ([2]; 5 mg once daily, adult and adolescent seasonal allergic rhinitis patients): significantly reduced
AM NOW total symptom score (symptom relief after 24 hours, before next day dose) ([2]; 5 mg to 20 mg dosage range, p<0.05): Statistically significant (p<0.05) reductions were maintained for the full 24 hour dosing interval
reducing nasal symptoms vs placebo ([2]; 5 mg, p<0.01 vs placebo): significantly (p<0.01) more effective than placebo
nasal congestion/stuffiness, 14-day average change in symptom severity score from baseline (patients with SAR; 5 mg PO once a day for 14 days, P=0.02 vs placebo): significantly decreased
total symptom severity (patients with SAR; 5 mg or 7.5 mg PO once a day for 14 days, vs placebo): significantly decreased
nasal congestion/stuffiness, 14-day average change in symptom severity score from baseline (patients with SAR; 7.5 mg PO once a day for 14 days, P=0.01 vs placebo): significantly decreased
